Results: patent US6919090B2, “Active substance combinations with insecticidal and acaricidal properties” (priority 2000, dated 2005)

How the values were obtained:
Assay type in all cases: in vivo
[1] = tested on: resistant caterpillars of the diamondback moth (Plutella xylostella); assay: Plutella Test (resistant), cabbage leaf dip
Description: (§1) The expected action for a given combination of two active compounds can be calculated as follows, using the formula of S. R. Colby, Weeds 15 (1967), 20-22: • If • X is the kill rate, expressed as % of the untreated control, when employing active compound A at an application rate of m g/ha or in a concentration of m ppm, • Y is the kill rate, expressed as % of the untreated control, when employing active compound B at an application rate of n g/ha or in a concentration of n ppm and • E is the kill rate, expressed as % of the untreated control, when employing active compounds A and B at application rates of m and n g/ha or in a concentration of m and n ppm, • then [formula]
(§2) If the actual insecticidal kill rate exceeds the calculated value, the action of the combination is superadditive, i.e. a synergistic effect is present. In this case, the actually observed kill rate must exceed the value calculated using the above formula for the expected kill rate (E).
Plutella Test (Resistant)
To produce a suitable preparation of active compound, 1 part by weight of active compound is mixed with the stated amounts of solvent and emulsifier, and the concentrate is diluted with emulsifier-containing water to the desired concentration.
Cabbage leaves (Brassica oleracea) are treated by being dipped into the preparation of active compound of the desired concentration and are populated with resistant caterpillars of the diamondback moth (Plutella xylostella) while the leaves are still moist.
(§3) After the desired period of time, the kill in % is determined. 100% means that all caterpillars have been killed; 0% means that none of the caterpillars have been killed. The kill rates determined are calculated using Colby's formula.

[2] = tested on: normally sensitive caterpillars of the diamondback moth (Plutella xylostella); assay: Plutella Test (normally sensitive), cabbage leaf dip
Description: as §1, §2
Plutella Test (Normally Sensitive)
To produce a suitable preparation of active compound, 1 part by weight of active compound is mixed with the stated amounts of solvent and emulsifier, and the concentrate is diluted with emulsifier-containing water to the desired concentration. […]
After the desired period of time, the kill in % is determined. […] The kill rates determined are calculated using Colby's formula.

[3] = tested on: caterpillars of the army worm (Spodoptera frugiperda); assay: Spodoptera frugiperda Test, cabbage leaf dip
Description: as §1, §2
Spodoptera frugiperda Test
To produce a suitable preparation of active compound, 1 part by weight of active compound is mixed with the stated amounts of solvent and emulsifier, and the concentrate is diluted with emulsifier-containing water to the desired concentration. Cabbage leaves (Brassica oleracea) are treated by being dipped into the preparation of active compound of the desired concentration and are populated with caterpillars of the army worm (Spodoptera frugiperda) while the leaves are still moist.
as §3

Cc1cc(C)c(C2=C(OC(=O)CC(C)(C)C)C3(CCCC3)OC2=O)c(C)c1 [Ex. I-b-1]
Kill rate in % after 7 d ([1]; 100 ppm): 35%
Kill rate in % after 7 d ([1]; 500 ppm): 40%
Kill rate in % after 3 d ([2]; 100 ppm): 40%
Kill rate in % after 7 d ([3]; 100 ppm): 0%

N#Cc1nn(-c2c(Cl)cc(C(F)(F)F)cc2Cl)c(N)c1[S+]([O-])C(F)(F)F (stereo not drawn) [Fipronil, fipronil]
Kill rate in % after 7 d ([1]; 0.032 ppm): 40%
Kill rate in % after 7 d ([3]; 0.8 ppm): 20%

COC(=O)N(C(=O)N1COC2(C(=O)OC)Cc3cc(Cl)ccc3C2=N1)c1ccc(OC(F)(F)F)cc1 (stereo not drawn) [Indoxacarb, indoxacarb]
Kill rate in % after 7 d ([1]; 0.16 ppm): 90%
Kill rate in % after 3 d ([2]; 0.16 ppm): 15%

Emamectin-benzoate
Kill rate in % after 7 d ([3]; 0.16 ppm): 55%
